Measured values: patent publication US8604029B2, “2-[(2-substituted)-indolizin-3-yl]-2-oxo-acetamide derivatives as antifungal agents” (F2G Ltd British Body Corporate, priority 2006, dated 2013)
≈ marks a conversion by molar mass, not a printed value.

The compounds below were run on Aspergillus fumigatus (assay: MIC measurement, YAG medium). Details: Aspergillus fumigatus; YAG medium; MIC banded into grades; strain AF293; read-out: MIC A. fumigatus.
Type: cell-based
Method: Between 1 and 5 mgs of compound were accurately weighed out into a sterile Eppendorf tube. The compound was dissolved in DMSO to give a solution containing […]. Tubes were stored at −20° C. until required.
On the day of testing thawed solutions were vortex mixed to ensure homogeneity. 30 μL of solution was removed and added to 570 μL of sterile water in a separate sterile Eppendorf. The thoroughly mixed solution was used to prepare a series of doubling dilutions in water, in a deep well plate. Thirteen replicate plates were prepared using a Minitrak by aspirating 20 μL from each well into eleven clear polystyrene 96 well plates.
Spores of Aspergillus spp. (Aspergillus fumigatus [two strains], Aspergillus terreus [two strains], Aspergillus niger and Aspergillus flavus) were harvested from cultures grown on Sabarauds agar for 5 days, and resuspended in PBS/Tween 80 to approx 1×10^7 cfu/mL. Other filamentous fungi (Absidia corymbifera, Fusarium solani, Rhizomucor, Scedosporium spp., Trichophyton spp.), were grown on Sabarauds agar for 2-10 days and spores/hyphae resuspended in PBS/Tween to give approx 1×10^7 cfu/mL. Candida species (Candida albicans, Candida glabrata, Candida krusei, Candida parapsilosis and Candida tropicalis) were grown on Sabarauds agar, cells were harvested from the agar using a sterile loop and resuspended in PBS/Tween 80 to approx 1×10^6 cfu/mL. Each organism suspension was diluted in RPMI medium, containing 2% glucose and 0.135 M MOPS buffer (pH 7.0) to 0.5-2×10^4 cfu/mL for Aspergillus spp. and other filamentous fungi and 0.5-2×10^3 cfu/mL for yeast. 80 μL of an organism suspension was added to each well of the plate containing drug dilutions.
This produced MIC plates with a drug range 50-0.05 mg/L and organism inocula of 1-2×10^4 cfu/mL for Aspergillus spp. and other filamentous fungi and 1-2×10^3 cfu/mL for yeasts. All plates were incubated for 24-48 hrs at 35° C. Growth was assessed by monitoring the optical density at 485 nm for each well. The MIC of a compound is the lowest drug concentration that inhibits growth of an organism by >80% compared with a drug free control. MICs are recorded as mg/L. Other growth media can be used for susceptibility testing, and the activity of the described compounds can also be assessed in a medium comprising 1% glucose, 1% ammonium chloride and 0.5% yeast extract (YAG medium). To perform MIC tests in this medium, dilutions of compounds are prepared in microtitre plates as described above. Fungal strains to be tested are grown and harvested in an identical manner to that described above, each organism suspension is then diluted in YAG medium to 0.5-2×10^4 cfu/mL for Aspergillus spp. and other filamentous fungi and 0.5-2×10^3 cfu/mL for yeast. 80 μL of an organism suspension was added to each well of the plate containing drug dilutions. This produced MIC plates with a drug range 50-0.05 mg/L and organism inocula of 1-2×10^4 cfu/mL for Aspergillus spp. and other filamentous fungi and 1-2×10^3 cfu/mL for yeasts. All plates were incubated for 24 hrs at 35° C. Growth was assessed by monitoring the optical density at 485 nm for each well. The MIC of a compound is the lowest drug concentration that inhibits growth of an organism by >70% compared with a drug free control. MICs are recorded as mg/L. In cases where the MIC of an organism is […] mg/L the MIC is repeated using a concentration range of 0.5-0.0005 mg/L. MIC tests in YAG medium have more clear-cut endpoints and have slightly lower MICs than those performed in RPMI medium.
The following organisms were tested: Absidia corymbifera, Aspergillus flavus, Aspergillus fumigatus AF293 and AF210, Aspergillus niger, Aspergillus terreus AT4 and AT49, Candida albicans, Candida glabrata, Candida krusei, Candida parapsilosis, Candida tropicalis, Fusarium solani, Rhizomucor sp., Scedosporium apiospermum, Scedosporium prolificans, Trichophyton mentagrophytes, and Trichophyton rubrum.

MIC [µg/mL]	Compound
> 10	Cc1c(-c2ccccc2)c2ccccn2c1C(=O)C(=O)Nc1ccc(N2CCOCC2)cc1 [Example 7, 2-(2-methyl-1-phenyl-indolizin-3-yl)-N-(4-morpholin-4-yl-phenyl)-2-oxo-acetamide]
< 1	Cc1cc(C)nc(N(C)CCN(C)c2ccc(NC(=O)C(=O)c3c(-c4ccccc4)cc4ccccn34)cc2)c1 [Example 55, N-[4-({2-[(4,6-Dimethyl-pyridin-2-yl)-methyl-amino]-ethyl}-methyl-amino)-phenyl]-2-oxo-2-(2-phenyl-indolizin-3-yl)-acetamide]
> 10	CC(C)c1nccn1CCOC(=O)C(C)(C)c1cccc(NC(=O)C(=O)c2c(-c3ccccc3)cc3ccccn23)c1 [Example 22, 2-Methyl-2-{3-[2-oxo-2-(2-phenyl-indolizin-3-yl)-acetylamino]-phenyl}-propionic acid 2-(2-isopropyl-imidazol-1-yl)-ethyl ester]
< 1	Cc1cc(C)nc(NCCN(C)c2ccc(NC(=O)C(=O)c3c(-c4ccccc4)cc4ccccn34)cc2)c1 [Example 69, N-(4-{[2-(4,6-dimethyl-pyridin-2-ylamino)-ethyl]-methyl-amino}-phenyl)-2-oxo-2-(2-phenyl-indolizin-3-yl)-acetamide]
< 1	COCCOc1cc(C)nc(N2CCN(c3ccc(NC(=O)C(=O)c4c(-c5ccccc5)cc5ccccn45)cc3)CC2)c1 [Example 57, N-(4-{4-[4-(2-Methoxy-ethoxy)-6-methyl-pyridin-2-yl]-piperazin-1-yl}-phenyl)-2-oxo-2-(2-phenyl-indolizin-3-yl)-acetamide]
< 1	Cc1cc(C)nc(OCCOc2ccc(NC(=O)C(=O)c3c(-c4ccccc4)cc4ccccn34)cc2)c1 [Example 65, N-{4-[2-(4,6-Dimethyl-pyridin-2-yloxy)-ethoxy]-phenyl}-2-oxo-2-(2-phenyl-indolizin-3-yl)-acetamide]
< 1	Cc1cc(C)nc(N2CCN(c3ccc(NC(=O)C(=O)c4c(-c5ccccc5)cc5ccccn45)cc3C)CC2)c1 [Example 82, N-{4-[4-(4,6-Dimethyl-pyridin-2-yl)-piperazin-1-yl]-3-methyl-phenyl}-2-oxo-2-(2-phenyl-indolizin-3-yl)-acetamide]
> 10	O=C(Nc1ccc(N2CCS(=O)(=O)CC2)cc1)C(=O)c1c(-c2ccccc2)cc2ccccn12 [Example 1, N-[4-(1,1-Dioxo-1λ^6-thiomorpholin-4-yl)-phenyl]-2-oxo-2-(2-phenyl-indolizin-3-yl)-acetamide]
< 1	Cc1cc(C)nc(CNc2ccc(NC(=O)C(=O)c3c(-c4ccccc4)cc4ccccn34)cc2)c1 [Example 91, N-{4-[(4,6-Dimethyl-pyridin-2-ylmethyl)-amino]-phenyl}-2-oxo-2-(2-phenyl-indolizin-3-yl)-acetamide]
< 1	O=C(Nc1ccc(N2CCN(c3cccc(CCO)n3)CC2)cc1)C(=O)c1c(-c2ccccc2)cc2ccccn12 [Example 88, N-(4-{4-[6-(2-hydroxy-ethyl)-pyridin-2-yl]-piperazin-1-yl}-phenyl)-2-oxo-2-(2-phenyl-indolizin-3-yl)-acetamide]
< 1	COCc1cc(N2CCN(c3cc(C)cc(C)n3)CC2)ccc1NC(=O)C(=O)c1c(-c2ccccc2)cc2ccccn12 [Example 83, N-{4-[4-(4,6-Dimethyl-pyridin-2-yl)-piperazin-1-yl]-2-methoxymethyl-phenyl}-2-oxo-2-(2-phenyl-indolizin-3-yl)-acetamide]
< 1	CON=C1CCN(c2ccc(NC(=O)C(=O)c3c(-c4ccccc4)cc4ccccn34)cc2)CC1 [Example 2, N-[4-(4-methoxyimino-piperidin-1-yl)-phenyl]-2-oxo-2-(2-phenyl-indolizin-3-yl)-acetamide]
< 1	Cc1cc(C)nc(N2CCN(c3ccc(NC(=O)C(=O)c4c(C5CC5)cc5ccccn45)cc3)CC2)c1 [Example 58, 2-(2-Cyclopropyl-indolizin-3-yl)-N-{4-[4-(4,6-dimethyl-pyridin-2-yl)-piperazin-1-yl]-phenyl}-2-oxo-acetamide]
< 1	Cc1cc(C)nc(N2CCN(c3ccc(NC(=O)C(=O)c4c(C5CCCCC5)cc5ccccn45)cc3)CC2)c1 [Example 60, 2-(2-Cyclohexyl-indolizin-3-yl)-N-{4-[4-(4,6-dimethyl-pyridin-2-yl)-piperazin-1-yl]-phenyl}-2-oxo-acetamide]
> 10	CC(C)c1ncc(C(C)(C)c2cccc(NC(=O)C(=O)c3c(-c4ccccc4)cc4ccccn34)c2)n1C [Example 15, N-{3-[1-(2-Isopropyl-3-methyl-3H-imidazol-4-yl)-1-methyl-ethyl]-phenyl}-2-oxo-2-(2-phenyl-indolizin-3-yl)-acetamide]
> 10	CN1CCN(c2ccc(NC(=O)C(=O)c3c(-c4ccccc4)cc4ccccn34)cc2-c2ncco2)CC1 [Example 19, N-[4-(4-methyl-piperazin-1-yl)-3-oxazol-2-yl-phenyl]-2-oxo-2-(2-phenyl-indolizin-3-yl)-acetamide]
1 to 10 (≈ 1.78 to 17.8 µM)	O=C(Nc1ccc(N2CCN(c3cc(OCCO)ccn3)CC2)cc1)C(=O)c1c(-c2ccccc2)cc2ccccn12 [Example 89, N-(4-{4-[4-(2-Hydroxy-ethoxy)-pyridin-2-yl]-piperazin-1-yl}-phenyl)-2-oxo-2-(2-phenyl-indolizin-3-yl)-acetamide]
< 1	Cc1cc(C)nc(CCCCc2ccc(NC(=O)C(=O)c3c(-c4ccccc4)cc4ccccn34)cc2)c1 [Example 72, N-{4-[4-(4,6-Dimethyl-pyridin-2-yl)-butyl]-phenyl}-2-oxo-2-(2-phenyl-indolizin-3-yl)-acetamide]
< 1	Cc1ccnc(N2CCN(c3ccc(NC(=O)C(=O)c4c(-c5ccccc5)cc5ccccn45)cc3)CC2)c1 [Example 49, N-{4-[4-(4-Methyl-pyridin-2-yl)-piperazin-1-yl]-phenyl}-2-oxo-2-(2-phenyl-indolizin-3-yl)-acetamide]
< 1	CCc1ccnc(N2CCN(c3ccc(NC(=O)C(=O)c4c(-c5ccccc5)cc5ccccn45)cc3)CC2)c1 [Example 75, N-{4-[4-(4-ethyl-pyridin-2-yl)-piperazin-1-yl]-phenyl}-2-oxo-2-(2-phenyl-indolizin-3-yl)-acetamide]
< 1	O=C(Nc1ccc(N2CCN(S(=O)(=O)c3cccnc3)CC2)cc1)C(=O)c1c(-c2ccccc2)cc2ccccn12 [Example 51, 2-Oxo-2-(2-phenyl-indolizin-3-yl)-N-{4-[4-(pyridine-3-sulfonyl)-piperazin-1-yl]-phenyl}-acetamide]
> 10	O=C(Nc1ccc(-c2cocn2)cc1)C(=O)c1c(-c2ccc(-c3ccccc3)cc2)cc2ccccn12 [Example 85, 2-(2-Biphenyl-4-yl-indolizin-3-yl)-N-(4-oxazol-4-yl-phenyl)-2-oxo-acetamide]
< 1	COCCN(C)c1ccc(N2CCN(c3ccc(NC(=O)C(=O)c4c(-c5ccccc5)cc5ccccn45)cc3)CC2)cn1 [Example 68, N-[4-(4-{6-[(2-Methoxy-ethyl)-methyl-amino]-pyridin-3-yl}-piperazin-1-yl)-phenyl]-2-oxo-2-(2-phenyl-indolizin-3-yl)-acetamide]
< 1	Cc1cc(OCCOc2ccc(NC(=O)C(=O)c3c(-c4ccccc4)cc4ccccn34)cc2)cc(C)n1 [Example 71, N-{4-[2-(2,6-Dimethyl-pyridin-4-yloxy)-ethoxy]-phenyl}-2-oxo-2-(2-phenyl-indolizin-3-yl)-acetamide]
< 1	CCC(CC)N1CCN(c2ccc(NC(=O)C(=O)c3c(-c4ccccc4Cl)cc4ccccn34)cn2)CC1 [Example 10, 2-[2-(2-chloro-phenyl)-indolizin-3-yl]-N-{6-[4-(1-ethyl-propyl)-piperazin-1-yl]-pyridin-3-yl}-2-oxo-acetamide]
